Where a SMILES comes first, the peptide text is derived from it. Bridges are numbered along the chain shown (N, C = ends). Where no end group is shown, it is not given here.

These results are taken from article PMC3407927, “Cyclisation Increases the Stability of the Sea Anemone Peptide APETx2 but Decreases Its Activity at Acid-Sensing Ion Channel 3” (Marine Drugs, 2012).

The subject of data set [1] is trypsin. The experiment in a line: Trypsin stability assay. The data set is classed as in vitro ADME. The conditions noted are these: 5 mM EDTA, pH 8.0, 20 μM peptide, 37 °C, RP-HPLC; for Trypsin stability assay: half-life / half-life at 20 μM: 1 μg trypsin in 500 μL 20 mM Tris, samples 0-48 h, each time point in triplicate. How it is done: The following protocol was modified from a previous published method: Wild-type APETx2 and cyclic analogues were diluted into 500 μL trypsin buffer (20 mM Tris, 5 mM EDTA, pH 8.0) to a final concentration of 20 μM. Reactions were started by adding 1 μg trypsin to each sample. A 35-μL sample was used for each time point and quenched by mixing with 35 μL 0.2% TFA. Protease digestion was monitored using analytical RP-HPLC. Reactions were incubated at 37 °C and samples were taken at 0, 0.5, 1, 2, 4, 12, 24 and 48 h. All time points were investigated in triplicate.

Data set [2] can be described thus: Solution stability under lab storage conditions. The data set is classed as physicochemical. The conditions noted are these: dissolved in water and kept at 4 °C; unpublished observations.
Data set [3] deals with T1, rat ASIC3 (Rattus norvegicus, UniProt O35240).
T1 construct: expressed in transfected cells; host or cells: Xenopus laevis oocytes (cRNA injection)
T1 sequence (O35240 1-533): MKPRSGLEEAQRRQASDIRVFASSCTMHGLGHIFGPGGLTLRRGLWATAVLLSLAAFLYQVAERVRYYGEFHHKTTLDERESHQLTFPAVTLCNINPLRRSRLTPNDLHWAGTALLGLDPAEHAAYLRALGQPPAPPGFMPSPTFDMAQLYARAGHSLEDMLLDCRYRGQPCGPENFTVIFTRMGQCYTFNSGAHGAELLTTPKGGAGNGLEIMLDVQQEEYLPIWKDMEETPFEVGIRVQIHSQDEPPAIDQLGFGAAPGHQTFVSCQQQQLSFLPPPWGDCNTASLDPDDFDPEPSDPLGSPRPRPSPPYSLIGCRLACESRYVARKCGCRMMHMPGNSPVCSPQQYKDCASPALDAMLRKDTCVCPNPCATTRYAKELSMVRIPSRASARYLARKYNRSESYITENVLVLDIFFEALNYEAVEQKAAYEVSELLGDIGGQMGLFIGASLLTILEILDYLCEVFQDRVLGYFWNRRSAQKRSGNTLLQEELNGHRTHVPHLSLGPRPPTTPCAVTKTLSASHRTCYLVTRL
The experiment in a line: Two-electrode voltage-clamp electrophysiology on Xenopus laevis oocytes expressing homomeric rat ASIC3. The conditions noted are these: n = 6. The data set is classed as cell-based. How it is done:
The biological activity of wild-type APETx2 was compared with that of truncations and cyclic analogues using voltage-clamp electrophysiology experiments on Xenopus laevis oocytes expressing homomeric rat ASIC3. […] At 1000 nM, a concentration of APETx2 that normally causes >90% inhibition of ASIC3 [18], all three cyclic analogues had little activity (~10% inhibition, n = 6) (Figure 5). Although a full concentration-effect curve was not obtained, there is an approximate 125-fold decrease in activity for all three cyclic analogues based on the concentration that causes 10% inhibition (~8 nM for wild-type APETx2 vs. 1000 nM for cyclic APETx2).
Oocytes were obtained from Xenopus laevis frogs and treated with collagenase (Sigma type I) for defolliculation. cRNA of rat ASIC3 was synthesised using an mMessage mMachine cRNA transcription kit and healthy stage V–VI oocytes injected with 4 ng rat ASIC3 cRNA (40 nL of 100 ng/μL). Oocytes were kept at 17 °C in ND96 solution (96 mM NaCl, 2 mM KCl, 1 mM CaCl2, 2 mM MgCl2, 5 mM HEPES, 5 mM pyruvic acid, 50 µg/mL gentamicin, 2.5% fetal horse serum, pH 7.4). Membrane currents were recorded 2–6 days post cRNA injection under voltage-clamp (Axoclamp 900 A amplifier, Molecular Devices, Sunnyvale, CA, USA) using two standard glass microelectrodes with resistances of 0.5–1 MΩ when filled with 3 M KCl solution. […]
On the technique in general: In two-electrode clamp one electrode senses voltage and the other passes current.

For data set [4], the target named is T2, pepsin (Sus scrofa, UniProt P00791).
T2 construct: purchased Sigma Aldrich
The experiment in a line: Simulated gastric fluid (SGF) stability assay. The data set is classed as in vitro ADME. The conditions noted are these: 20 μM peptide, RP-HPLC. Here is the method: (§1) The following protocol was modified from a published method: Wild-type APETx2 and cyclic analogues were separately diluted into 350 μL SGF (6.2 mg/mL pepsin, 30 mM NaCl, pH 1.9) to a final peptide concentration of 20 μM. Reactions were started with the addition of the peptides and the mixtures were incubated at 37 °C. 35-μL samples were taken at 0, 15, 30, 45, 60, 120, 240 and 480 min and mixed with 5 μL pepstatin A to quench the reaction (3.3 mg/mL dissolved in ethanol). Progress was monitored using RP-HPLC and each time point was investigated in triplicate.

Data set [5] deals with T3, pepsin.
T3 construct: purchased Sigma Aldrich
The experiment in a line: Simulated gastric fluid (SGF) stability assay. The data set is classed as in vitro ADME. The following applies: simulated gastric fluid (SGF) with pepsin; SGF: 6.2 mg/mL pepsin, 30 mM NaCl, pH 1.9; 20 μM peptide; 37 °C; samples 0-480 min; RP-HPLC; each time point in triplicate. How it is done:
as §1

T2 sequence (P00791 60-385): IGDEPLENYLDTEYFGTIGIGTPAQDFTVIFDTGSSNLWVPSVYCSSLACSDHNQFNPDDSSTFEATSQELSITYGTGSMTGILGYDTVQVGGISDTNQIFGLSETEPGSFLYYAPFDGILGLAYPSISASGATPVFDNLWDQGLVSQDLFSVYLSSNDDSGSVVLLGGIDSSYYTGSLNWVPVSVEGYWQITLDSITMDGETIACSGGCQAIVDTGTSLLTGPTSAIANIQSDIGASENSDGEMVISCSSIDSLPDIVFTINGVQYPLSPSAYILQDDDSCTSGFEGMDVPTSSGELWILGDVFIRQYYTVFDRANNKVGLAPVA

As a reminder, the fraction remaining is what is left of the initial amount, in per cent. For orientation: IC50 means the concentration needed to halve the response being measured. The term half-life denotes how long it takes for the measured level to halve. For the compound “GTACSCGNSKGIYWFYRPSCPTDRGYTGSCRYFLGTCCTPAD (disulfide 4-37, 6-30, 20-38) [APETx2_wt, APETx2]”, the entries for the “Trypsin stability assay: half-life” value in data set [1] and in data set [1] (listed as wild-type APETx2) were 2.8 h and ~ 2.8 h, respectively. For the same compound, the fraction remaining at 48 h, 20 μM in data set [1] (trypsin in Tris/EDTA buffer, 48 h, 1 μg trypsin, 20 mM Tris, triplicate, read-out: peptide remaining intact after 48 h in the presence of trypsin) is approximately 4%. The “solution stability under lab storage conditions” value in data set [2] was “stable for months”. Also, in data set [3] (Xenopus oocytes, clamped at −60 mV, pH 6 stimulus, ND96 with 0.1% BSA, RT, read-out: IC50 for inhibition of rASIC3 currents), the IC50 was 61 nM. The “time within which peptide is almost totally digested in simulated gastric fluid” value in data set [4] (SGF 6.2 mg/mL pepsin, pH 1.9, 37 °C) was not above 20 min. The “Simulated gastric fluid stability assay: half-life” value in data set [4] (SGF: 6.2 mg/mL pepsin, 30 mM NaCl, pH 1.9, 37 °C, samples 0-480 min, each time point in triplicate) is given as 5 min. For the same compound, the half-life at 20 μM in data set [5] is approximately 0.0833 h.
“cyclo(ACSCGNSKGIYWFYRPSCPTDRGYTGSCRYFLGTCCTPADAGASGSAGT) (disulfide 2-35, 4-28, 18-36) [cAPETx2_7RL]”: the figures for the half-life at 20 μM in data set [1] (trypsin in Tris/EDTA buffer) and in data set [5] were 134 h and 2.75 h, respectively.
For “cyclo(ACSCGNSKGIYWFYRPSCPTDRGYTGSCRYFLGTCCTPADGASGSAGT) (disulfide 2-35, 4-28, 18-36) [cAPETx2_6RL]”, the values for the half-life at 20 μM in data set [1] (trypsin in Tris/EDTA buffer) and in data set [5] were 104 h and 1.9 h, respectively.
On to “cyclo(ACSCGNSKGIYWFYRPSCPTDRGYTGSCRYFLGTCCTPADSAGASGSAGT) (disulfide 2-35, 4-28, 18-36) [cAPETx2_8RL]”, for which the half-life at 20 μM was 131 h in data set [1] (trypsin in Tris/EDTA buffer) and 1.67 h in data set [5].
As a reminder, the inhibition is the percentage by which the read-out fell short of the control. For `CC[C@H](C)[C@@H]1NC(=O)CNC(=O)[C@H](CCCCN)NC(=O)[C@H](CO)NC(=O)[C@H](CC(N)=O)NC(=O)CNC(=O)[C@@H]2CSSC[C@@H]3NC(=O)[C@H](CO)NC(=O)CNC(=O)[C@H]([C@@H](C)O)NC(=O)[C@H](Cc4ccc(O)cc4)NC(=O)CNC(=O)[C@H](CCCNC(=N)N)NC(=O)[C@H](CC(=O)O)NC(=O)[C@H]([C@@H](C)O)NC(=O)[C@@H]4CCCN4C(=O)[C@H](CSSC[C@@H](C(=O)N[C@H](C(=O)N4CCC[C@H]4C(=O)N[C@@H](C)C(=O)N[C@@H](CC(=O)O)C(=O)O)[C@@H](C)O)NC(=O)[C@H](CSSC[C@H](NC(=O)[C@H](C)N)C(=O)N[C@@H](CO)C(=O)N2)NC(=O)[C@H]([C@@H](C)O)NC(=O)CNC(=O)[C@H](CC(C)C)NC(=O)[C@H](Cc2ccccc2)NC(=O)[C@H](Cc2ccc(O)cc2)NC(=O)[C@H](CCCNC(=N)N)NC3=O)NC(=O)[C@H](CO)NC(=O)[C@@H]2CCCN2C(=O)[C@H](CCCNC(=N)N)NC(=O)[C@H](Cc2ccc(O)cc2)NC(=O)[C@H](Cc2ccccc2)NC(=O)[C@H](Cc2c[nH]c3ccccc23)NC(=O)[C@H](Cc2ccc(O)cc2)NC1=O` [APETx2_3–42] (H-ACSCGNSKGIYWFYRPSCPTDRGYTGSCRYFLGTCCTPAD-OH; disulfide 2-35, 4-28, 18-36), the inhibition at 3 µM in data set [3] (3 μM peptide, rat ASIC3 in Xenopus oocytes, read-out: inhibition of ASIC3 currents at 3 μM) was approximately 13%.
